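Dose response: 5 concentrations. Exposure: 48 h. Format: 96-well plates. Endpoint: linear interpolation; highest concentration if not reached. The concentration for 50% growth inhibition is given as GI50. TGI: concentration producing complete growth inhibition.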
Tests used:
Assay in all cases: growth of human tumour cells (NCI), 48 h
786-0 renal = tested on: 786-0 renal
A498 renal = tested on: A498 renal
A549 NSCLC = tested on: A549 NSCLC
ACHN renal = tested on: ACHN renal
CAKI-1 renal = tested on: CAKI-1 renal
CCRF-CEM leukemia = tested on: CCRF-CEM leukemia
COLO 205 colon = tested on: COLO 205 colon
DU-145 prostate = tested on: DU-145 prostate
EKVX NSCLC = tested on: EKVX NSCLC
HCC-2998 colon = tested on: HCC-2998 colon
HCT-116 colon = tested on: HCT-116 colon
HCT-15 colon = tested on: HCT-15 colon
HL-60(TB) leukemia = tested on: HL-60(TB) leukemia
HOP-62 NSCLC = tested on: HOP-62 NSCLC
HOP-92 NSCLC = tested on: HOP-92 NSCLC
HS 578T breast = tested on: HS 578T breast
HT29 colon = tested on: HT29 colon
IGROV1 ovarian = tested on: IGROV1 ovarian
K-562 leukemia = tested on: K-562 leukemia
KM12 colon = tested on: KM12 colon
LOX IMVI melanoma = tested on: LOX IMVI melanoma
M14 melanoma = tested on: M14 melanoma
MALME-3M melanoma = tested on: MALME-3M melanoma
MCF7 breast = tested on: MCF7 breast
MDA-MB-231 breast = tested on: MDA-MB-231 breast
MDA-MB-435 = tested on: MDA-MB-435
MOLT-4 leukemia = tested on: MOLT-4 leukemia
NCI-H226 lung = tested on: NCI-H226 lung
NCI-H23 lung = tested on: NCI-H23 lung
NCI-H460 lung = tested on: NCI-H460 lung
NCI-H522 lung = tested on: NCI-H522 lung
NCI/ADR-RES ovarian = tested on: NCI/ADR-RES ovarian
OVCAR-3 ovarian = tested on: OVCAR-3 ovarian
OVCAR-4 ovarian = tested on: OVCAR-4 ovarian
OVCAR-5 ovarian = tested on: OVCAR-5 ovarian
OVCAR-8 ovarian = tested on: OVCAR-8 ovarian
PC-3 prostate = tested on: PC-3 prostate
RPMI-8226 leukemia = tested on: RPMI-8226 leukemia
RXF 393 renal = tested on: RXF 393 renal
SF-268 CNS = tested on: SF-268 CNS
SF-295 CNS = tested on: SF-295 CNS
SF-539 CNS = tested on: SF-539 CNS
SK-MEL-2 melanoma = tested on: SK-MEL-2 melanoma
SK-MEL-28 melanoma = tested on: SK-MEL-28 melanoma
SK-MEL-5 melanoma = tested on: SK-MEL-5 melanoma
SK-OV-3 ovarian = tested on: SK-OV-3 ovarian
SN12C renal = tested on: SN12C renal
SNB-19 CNS = tested on: SNB-19 CNS
SNB-75 CNS = tested on: SNB-75 CNS
SR leukemia = tested on: SR leukemia
SW-620 colon = tested on: SW-620 colon
TK-10 renal = tested on: TK-10 renal
U251 CNS = tested on: U251 CNS
UACC-257 melanoma = tested on: UACC-257 melanoma
UACC-62 melanoma = tested on: UACC-62 melanoma
UO-31 renal = tested on: UO-31 renal
T-47D breast = tested on: T-47D breast

N#C/C(=C1C=C/C(=N/O)C(Cl)=C/1)c1ccc(Cl)cc1
GI50 (786-0 renal): 5.16 µM
TGI (786-0 renal): 19.1 µM
GI50 (A498 renal): 3.07 µM
TGI (A498 renal): 20.4 µM
GI50 (A549 NSCLC): 15.6 µM
TGI (A549 NSCLC): 46.4 µM
GI50 (ACHN renal): 4.47 µM
TGI (ACHN renal): 18.4 µM
GI50 (CAKI-1 renal): 3.63 µM
TGI (CAKI-1 renal): 14.1 µM
GI50 (CCRF-CEM leukemia): 1.96 µM
TGI (CCRF-CEM leukemia): 6.93 µM
GI50 (COLO 205 colon): 12.2 µM
TGI (COLO 205 colon): 31.1 µM
GI50 (DU-145 prostate): 1.98 µM
TGI (DU-145 prostate): 4.1 µM
GI50 (EKVX NSCLC): 10.4 µM
TGI (EKVX NSCLC): 59.2 µM
GI50 (HCC-2998 colon): 19.1 µM
TGI (HCC-2998 colon): 38.4 µM
GI50 (HCT-116 colon): 1.82 µM
TGI (HCT-116 colon): 4.39 µM
GI50 (HCT-15 colon): 6.67 µM
TGI (HCT-15 colon): 77.7 µM
GI50 (HL-60(TB) leukemia): 1.24 µM
TGI (HL-60(TB) leukemia): 5 µM
GI50 (HOP-62 NSCLC): 4.29 µM
TGI (HOP-62 NSCLC): 19.1 µM
GI50 (HOP-92 NSCLC): 7.92 µM
TGI (HOP-92 NSCLC): 51.1 µM
GI50 (HS 578T breast): 6.65 µM
TGI (HS 578T breast): 44.3 µM
GI50 (HT29 colon): 5.46 µM
TGI (HT29 colon): 19.8 µM
GI50 (IGROV1 ovarian): 2.66 µM
TGI (IGROV1 ovarian): 7.89 µM
GI50 (K-562 leukemia): 1.16 µM
TGI (K-562 leukemia): 8.51 µM
GI50 (KM12 colon): 0.721 µM
TGI (KM12 colon): 10.1 µM
GI50 (LOX IMVI melanoma): 2.62 µM
TGI (LOX IMVI melanoma): 10.3 µM
GI50 (M14 melanoma): 11.5 µM
TGI (M14 melanoma): 31.6 µM
GI50 (MALME-3M melanoma): 12.2 µM
TGI (MALME-3M melanoma): 29.3 µM
GI50 (MCF7 breast): 2.42 µM
TGI (MCF7 breast): 8.89 µM
GI50 (MDA-MB-231 breast): 7.24 µM
TGI (MDA-MB-231 breast): 23.4 µM
GI50 (MDA-MB-435): 1.96 µM
TGI (MDA-MB-435): 8.45 µM
GI50 (MOLT-4 leukemia): 2.35 µM
TGI (MOLT-4 leukemia): 7.65 µM
GI50 (NCI-H226 lung): 7.59 µM
TGI (NCI-H226 lung): 27.3 µM
GI50 (NCI-H23 lung): 25.9 µM
TGI (NCI-H23 lung): > 100 µM
GI50 (NCI-H460 lung): 3.8 µM
TGI (NCI-H460 lung): 15.2 µM
GI50 (NCI-H522 lung): 4.12 µM
TGI (NCI-H522 lung): 15.7 µM
GI50 (NCI/ADR-RES ovarian): 4.7 µM
TGI (NCI/ADR-RES ovarian): 26.1 µM
GI50 (OVCAR-3 ovarian): 3.97 µM
TGI (OVCAR-3 ovarian): 13.7 µM
GI50 (OVCAR-4 ovarian): 17 µM
TGI (OVCAR-4 ovarian): 91.2 µM
GI50 (OVCAR-5 ovarian): 12.7 µM
TGI (OVCAR-5 ovarian): 43.4 µM
GI50 (OVCAR-8 ovarian): 12.3 µM
TGI (OVCAR-8 ovarian): 51.9 µM
GI50 (PC-3 prostate): 4.99 µM
TGI (PC-3 prostate): 71.1 µM
GI50 (RPMI-8226 leukemia): 1.61 µM
TGI (RPMI-8226 leukemia): 11.8 µM
GI50 (RXF 393 renal): 13.5 µM
TGI (RXF 393 renal): 36.1 µM
GI50 (SF-268 CNS): 3.66 µM
TGI (SF-268 CNS): 14.7 µM
GI50 (SF-295 CNS): 4.08 µM
TGI (SF-295 CNS): 14.4 µM
GI50 (SF-539 CNS): 3.16 µM
TGI (SF-539 CNS): 11.9 µM
GI50 (SK-MEL-2 melanoma): 7.8 µM
TGI (SK-MEL-2 melanoma): 24.8 µM
GI50 (SK-MEL-28 melanoma): 30.1 µM
TGI (SK-MEL-28 melanoma): > 100 µM
GI50 (SK-MEL-5 melanoma): 16.5 µM
TGI (SK-MEL-5 melanoma): 40.3 µM
GI50 (SK-OV-3 ovarian): 15.7 µM
TGI (SK-OV-3 ovarian): 41.6 µM
GI50 (SN12C renal): 2.99 µM
TGI (SN12C renal): 8.02 µM
GI50 (SNB-19 CNS): 18.4 µM
TGI (SNB-19 CNS): > 100 µM
GI50 (SNB-75 CNS): 3.78 µM
TGI (SNB-75 CNS): 18.4 µM
GI50 (SR leukemia): 1.36 µM
TGI (SR leukemia): 4.05 µM
GI50 (SW-620 colon): 3.79 µM
TGI (SW-620 colon): 15.1 µM
GI50 (TK-10 renal): 5.25 µM
TGI (TK-10 renal): 20.2 µM
GI50 (U251 CNS): 5.7 µM
TGI (U251 CNS): 20 µM
GI50 (UACC-257 melanoma): 21.2 µM
TGI (UACC-257 melanoma): > 100 µM
GI50 (UACC-62 melanoma): 4.01 µM
TGI (UACC-62 melanoma): 18 µM
GI50 (UO-31 renal): 3.33 µM
TGI (UO-31 renal): 13 µM

O=C1CSC2=NC3=C(CSC/C3=C\c3ccc(Cl)cc3)C(c3ccc(Cl)cc3)N12 (stereo not given)
TGI (A549 NSCLC): > 100 µM
TGI (ACHN renal): > 100 µM
TGI (CAKI-1 renal): > 100 µM
TGI (CCRF-CEM leukemia): > 100 µM
TGI (COLO 205 colon): > 100 µM
TGI (DU-145 prostate): > 100 µM
TGI (EKVX NSCLC): > 100 µM
TGI (HCC-2998 colon): 89.2 µM
TGI (HCT-116 colon): 29 µM
TGI (HCT-15 colon): 80.2 µM
TGI (HL-60(TB) leukemia): > 100 µM
TGI (HOP-92 NSCLC): 39.9 µM
TGI (HT29 colon): > 100 µM
TGI (IGROV1 ovarian): > 100 µM
TGI (K-562 leukemia): > 100 µM
TGI (KM12 colon): 79.1 µM
TGI (LOX IMVI melanoma): 28.7 µM
TGI (M14 melanoma): > 100 µM
TGI (MALME-3M melanoma): > 100 µM
TGI (MCF7 breast): 87.2 µM
TGI (MDA-MB-231 breast): > 100 µM
TGI (MDA-MB-435): 66 µM
TGI (MOLT-4 leukemia): 43.4 µM
TGI (NCI-H23 lung): > 100 µM
TGI (NCI-H460 lung): > 100 µM
TGI (NCI-H522 lung): 36.3 µM
TGI (NCI/ADR-RES ovarian): > 100 µM
TGI (OVCAR-3 ovarian): 67 µM
TGI (OVCAR-4 ovarian): 67.1 µM
TGI (OVCAR-5 ovarian): > 100 µM
TGI (OVCAR-8 ovarian): 43.3 µM
TGI (PC-3 prostate): > 100 µM
TGI (RPMI-8226 leukemia): > 100 µM
TGI (SF-268 CNS): > 100 µM
TGI (SF-295 CNS): 47.6 µM
TGI (SK-MEL-2 melanoma): 52.3 µM
TGI (SK-MEL-28 melanoma): 81.9 µM
TGI (SK-MEL-5 melanoma): 29.3 µM
TGI (SK-OV-3 ovarian): > 100 µM
TGI (SN12C renal): 39.2 µM
TGI (SNB-19 CNS): > 100 µM
TGI (SR leukemia): 56.3 µM
TGI (SW-620 colon): 62.3 µM
TGI (T-47D breast): > 100 µM
TGI (TK-10 renal): > 100 µM
TGI (UACC-257 melanoma): 85.9 µM
TGI (UACC-62 melanoma): > 100 µM
TGI (UO-31 renal): 29.3 µM
